Assays:
memapsin 2 = memapsin 2 (Homo sapiens, UniProt P56817); assay: Inhibition of memapsin 2 beta-secretase activity toward fluorogenic substrate FS-2; format: biochemical; conditions: memapsin 2, pH 4, 37° C., 20 minutes pre-incubation, substrate FS-2; read-out: M2Ki
How it was run: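 Memapsin 2 was preincubated with compound 20 min at pH 4, 37 °C, then reacted with fluorogenic substrate FS-2 (MCA-SEVNLDAEFK-DNP), an APP-derived Swedish-variant peptide. Inhibition was followed kinetically by fluorescence.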

[1] = test system: Aβ production in Chinese hamster ovary cells that over-express human APP695 with the London and Swedish mutations; assay: Cellular Aβ IC50 determination (Aβ40 sandwich ELISA); format: cell-based; conditions: Cricetulus griseus; Aβ40 in CHO cells over-expressing human APP695, 24 h incubation
How it was run: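 APP695 (London/Swedish)-overexpressing CHO cells were treated 48 h after seeding with serial dilutions from near 4 μM top concentration (0.4% DMSO) for 24 h at 37 °C. Secreted Aβ40 was quantified by sandwich ELISA relative to controls and fit to a 4-parameter IC50 model.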

memapsin 2, sequence (P56817 46-501): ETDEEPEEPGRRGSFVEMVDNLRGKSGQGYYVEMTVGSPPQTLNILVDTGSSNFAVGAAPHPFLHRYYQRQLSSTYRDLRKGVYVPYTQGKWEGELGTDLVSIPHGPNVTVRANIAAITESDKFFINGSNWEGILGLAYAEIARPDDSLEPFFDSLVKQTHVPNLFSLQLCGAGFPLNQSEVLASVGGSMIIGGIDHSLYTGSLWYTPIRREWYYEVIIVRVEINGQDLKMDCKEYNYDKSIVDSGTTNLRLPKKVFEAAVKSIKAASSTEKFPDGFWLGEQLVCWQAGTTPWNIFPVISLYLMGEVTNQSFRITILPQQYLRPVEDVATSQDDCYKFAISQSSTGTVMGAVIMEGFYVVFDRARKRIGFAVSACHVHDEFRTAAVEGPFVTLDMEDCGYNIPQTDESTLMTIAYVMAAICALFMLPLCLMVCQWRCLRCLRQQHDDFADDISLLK

Structure (SMILES) | Ki (memapsin 2) [nM] | IC50 [1] [nM]
Cc1coc([C@H]2CCCN2C(=O)c2cc(CF)cc(C(=O)N[C@@H](Cc3ccccc3)[C@H](O)CNCc3cncc(C(C)(C)F)c3)c2)n1 [Compound 78, 3-(fluoromethyl)-N-((2S,3R)-4-((5-(2-fluoropropan-2-yl)pyridin-3-yl)methylamino)-3-hydroxy-1-phenylbutan-2-yl)-5-((R)-2-(4-methyloxazol-2-yl)pyrrolidine-1-carbonyl)benzamide] | < 100 | < 300
Cc1cc(C(=O)N[C@@H](Cc2ccccc2)[C@H](O)CNCc2cccc(C(F)(F)F)c2)cc(C(=O)N2CCC[C@@H]2c2nc(C)cs2)n1 [Compound 79, N-((2S,3R)-3-hydroxy-1-phenyl-4-(3-(trifluoromethyl)benzylamino)butan-2-yl)-2-methyl-6-((R)-2-(4-methylthiazol-2-yl)pyrrolidine-1-carbonyl)isonicotinamide] | < 100 | < 300
Cc1csc([C@H]2CCCN2C(=O)c2cc(C(=O)N[C@@H](Cc3ccccc3)[C@H](O)CNCc3cccc(C(F)(F)F)c3)cc(-n3cccc3)c2)n1 [Compound 80, N-((2S,3R)-3-hydroxy-1-phenyl-4-(3-(trifluoromethyl)benzylamino)butan-2-yl)-3-((R)-2-(4-methylthiazol-2-yl)pyrrolidine-1-carbonyl)-5-(1H-pyrrol-1-yl)benzamide] | < 100 | < 300
Cc1csc([C@H]2CCCN2C(=O)c2cc(C(=O)N[C@@H](Cc3ccccc3)[C@H](O)CNCc3cccc(C(F)(F)F)c3)nc(N(C)C)c2)n1 [Compound 81, 6-(dimethylamino)-N-((2S,3R)-3-hydroxy-1-phenyl-4-(3-(trifluoromethyl)benzylamino)butan-2-yl)-4-((R)-2-(4-methylthiazol-2-yl)pyrrolidine-1-carbonyl)picolinamide] | < 100 | < 300
Cc1coc([C@H]2CCCN2C(=O)c2cc(CF)cc(C(=O)N[C@@H](Cc3ccccc3)[C@H](O)CNCc3cccc(C(F)(F)F)c3)c2)n1 [Compound 82, 3-(fluoromethyl)-N-((2S,3R)-3-hydroxy-1-phenyl-4-(3-(trifluoromethyl)benzylamino)butan-2-yl)-5-((R)-2-(4-methyloxazol-2-yl)pyrrolidine-1-carbonyl)benzamide] | < 100 | < 300
COc1cc(C(=O)N[C@@H](Cc2ccccc2)[C@H](O)CNCc2cncc(C(C)C)c2)cc(C(=O)N2CCC[C@@H]2c2nc(C)cs2)c1 [Compound 83, N-((2S,3R)-3-hydroxy-4-((5-isopropylpyridin-3-yl)methylamino)-1-phenylbutan-2-yl)-3-methoxy-5-((R)-2-(4-methylthiazol-2-yl)pyrrolidine-1-carbonyl)benzamide] | < 100 | < 300
Cc1cc(C(=O)N[C@@H](Cc2ccccc2)[C@H](O)CNCc2cccc(C(F)(F)F)c2)cc(C(=O)N2CCC[C@@H]2c2nc(C)co2)n1 [Compound 84, N-((2S,3R)-3-hydroxy-1-phenyl-4-(3-(trifluoromethyl)benzylamino)butan-2-yl)-2-methyl-6-((R)-2-(4-methyloxazol-2-yl)pyrrolidine-1-carbonyl)isonicotinamide] | < 100 | < 300
CNc1cc(CNC[C@@H](O)[C@H](Cc2ccccc2)NC(=O)c2cccc(C(=O)N3CCC[C@@H]3c3nc(C)cs3)c2)cc(C(F)(F)F)c1 [Compound 85, N-((2S,3R)-3-hydroxy-4-(3-(methylamino)-5-(trifluoromethyl)benzylamino)-1-phenylbutan-2-yl)-3-((R)-2-(4-methylthiazol-2-yl)pyrrolidine-1-carbonyl)benzamide] | < 100 | < 300
Cc1coc([C@H]2CCCN2C(=O)c2cc(C(=O)N[C@@H](Cc3ccccc3)[C@H](O)CNCc3cncc(C(C)C)c3)cc(-c3ncco3)c2)n1 [Compound 86, N-((2S,3R)-3-hydroxy-4-((5-isopropylpyridin-3-yl)methylamino)-1-phenylbutan-2-yl)-3-((R)-2-(4-methyloxazol-2-yl)pyrrolidine-1-carbonyl)-5-(oxazol-2-yl)benzamide] | < 100 | < 300
Cc1coc([C@H]2CCCN2C(=O)c2cc(C(=O)N[C@@H](Cc3ccccc3)[C@H](O)CNCc3cccc(C(F)(F)F)c3)cc(-c3ncco3)c2)n1 [Compound 87, N-((2S,3R)-3-hydroxy-1-phenyl-4-(3-(trifluoromethyl)benzylamino)butan-2-yl)-3-((R)-2-(4-methyloxazol-2-yl)pyrrolidine-1-carbonyl)-5-(oxazol-2-yl)benzamide] | < 100 | < 300
Cc1csc([C@H]2CCCN2C(=O)c2cc(C(=O)N[C@@H](Cc3ccccc3)[C@H](O)CNCc3cccc(C(F)(F)F)c3)cc(-c3ccc(F)nc3)n2)n1 [Compound 88, 6′-fluoro-N-((2S,3R)-3-hydroxy-1-phenyl-4-(3-(trifluoromethyl)benzylamino)butan-2-yl)-6-((R)-2-(4-methylthiazol-2-yl)pyrrolidine-1-carbonyl)-2,3′-bipyridine-4-carboxamide] | 101 to 200 | < 300
COc1cc(C(=O)N[C@@H](Cc2ccccc2)[C@H](O)CNCc2cncc(C(C)C)c2)cc(C(=O)N2CCC[C@@H]2c2nc(C)co2)c1 [Compound 89, N-((2S,3R)-3-hydroxy-4-((5-isopropylpyridin-3-yl)methylamino)-1-phenylbutan-2-yl)-3-methoxy-5-((R)-2-(4-methyloxazol-2-yl)pyrrolidine-1-carbonyl)benzamide] | < 100 | < 300
Cc1coc([C@H]2CCCN2C(=O)c2cc(C(=O)N[C@@H](Cc3ccccc3)[C@H](O)CNCc3cncc(C(C)(C)F)c3)cc(-c3ncco3)c2)n1 [Compound 90, N-((2S,3R)-4-((5-(2-fluoropropan-2-yl)pyridin-3-yl)methylamino)-3-hydroxy-1-phenylbutan-2-yl)-3-((R)-2-(4-methyloxazol-2-yl)pyrrolidine-1-carbonyl)-5-(oxazol-2-yl)benzamide] | < 100 | < 300
Cc1csc([C@H]2CCCN2C(=O)c2cc(C(=O)N[C@@H](Cc3ccccc3)[C@H](O)CNCc3cccc(C(F)(F)F)c3)cc(-c3cccc(Cl)c3)n2)n1 [Compound 91, 2-(3-chlorophenyl)-N-((2S,3R)-3-hydroxy-1-phenyl-4-(3-(trifluoromethyl)benzylamino)butan-2-yl)-6-((R)-2-(4-methylthiazol-2-yl)pyrrolidine-1-carbonyl)isonicotinamide] | < 100 | 301 to 500
Cc1coc([C@H]2CCCN2C(=O)c2cc(C(=O)N[C@@H](Cc3ccccc3)[C@H](O)CNCc3cncc(C(C)C)c3)cc(N(C)C)c2)n1 [Compound 92, 3-(dimethylamino)-N-((2S,3R)-3-hydroxy-4-((5-isopropylpyridin-3-yl)methylamino)-1-phenylbutan-2-yl)-5-((R)-2-(4-methyloxazol-2-yl)pyrrolidine-1-carbonyl)benzamide] | < 100 | < 300
COc1cc(C(=O)N[C@@H](Cc2ccccc2)[C@H](O)CNCc2cccc(C(F)(F)F)c2)cc(C(=O)N2CCC[C@@H]2c2nc(C)co2)c1 [Compound 93, N-((2S,3R)-3-hydroxy-1-phenyl-4-(3-(trifluoromethyl)benzylamino)butan-2-yl)-3-methoxy-5-((R)-2-(4-methyloxazol-2-yl)pyrrolidine-1-carbonyl)benzamide] | < 100 | < 300
